B1: LNT102: endolysin LNT101 variant with 15 amino acid mutations, SEQ ID NO: 6, purified with 6× His tag (protein)
chain: MGTVLKRGDRGSAVEDLQMKLNVAGYNLSADGIFGGDTEKAVRDVQAGAGLVVDGKVGPKTLYAIAKSATVPAKWEAIPFPTANKSRSAAMPTLNAVGAMTGVDSRLLATFASIESAFDYTVKAKTSSATGWFQFLDATWDDMIKAYGSKYGIPKDPTRALRKDPRANALMGAEFIKGNAAVLRPVINREPSDTDLYLAHFLGAGGAKKFLSADQKTLGEVLFPKPAKANPSIFSNKGVPRTLAEIYKLFEDKVSKHRA
modifications: 6xHis tag; synthetic_Endolysin LNT102
B2: CecA-LNT101: fusion polypeptide in which Cecropin A was fused to endolysin LNT101; SEQ ID NO: 16 used in the tests (protein)
chain: MASKWKLFKKIEKVGQNIRDGIIKAGPAVAVVGQATQIAKGSGSGSMGTVLKRGDRGSAVEDLQMKLRVAGYAVSADGIFGGDTEKAVRDFQASKALVVDGKVGPATLAELAKSATVPAKWEAIPFPTANKSRSAAMPTLNAVGAMTGTDSRLLATFASIESAFDYTVKASTSSATGWFQFLDATWDDMIKAHGSKYGIPKDPTRALRKDPRANALMGAEFLKGNAAVLRPVINREPSDTDLYLAHFLGAGGAKKFLSADQKTLGEVLFPKPAKANPSIFSNKGVPRTLAEIYKLFEDKVSKHRALEHHHHHH
modifications: synthetic_Fusion Polypeptide CecA-LNT101 with MAS, His tag, and extra sequence

How the values were obtained:
P. aeruginosa = test: MIC of polymyxin-based antibiotics with LNT101 (broth microdilution); format: cell-based; details: for reduction of MIC of the polymyxin-based antibiotic in combination with LNT101: LNT101 endolysin 1 μM; for MIC of antibiotics: P. aeruginosa 1×10^5 CFU/ml, 37° C. 18 hours, combination with LNT101 endolysin 1 μM, otherwise PBS
Method: The synergy effect by treatment in combination of the polymyxin-based antibiotic having a mechanism acting on the cell membrane of bacterium and endolysin LNT101 was confirmed. Specifically, polymyxin B (32 μg/ml-0.03 μg/ml) and colistin (128 μg/ml-0.1 μg/ml) were diluted by ½ per well in a microplate, and then a LNT101 endolysin 1 μM combination treatment group and the same amount of PBS treatment group was made. In all wells, P. aeruginosa 1×10^5 CFU/ml was treated by total 100 μl. After that, they were cultured at 37° C. for 18 hours.
The MIC change of the polymyxin-based antibiotic by combination treatment of the polymyxin-based antibiotic (polymyxin B, Colistin) and LNT101 endolysin at various concentrations was confirmed, and shown in Table 3 below.

E. coli(ATCC 8739) = test: MIC of polymyxin-based antibiotics with LNT102 (broth microdilution); format: cell-based; details: + PBS or + LNT102 endolysin 1 μM, 37° C. 18 hours
Method: (§1) A synergy effect by combination treatment of a polymyxin-based antibiotic having a mechanism acting on the cell membrane of bacterium and endolysin LNT102 purified in Example 2.2 was confirmed. Specifically, after treating 4 μg/ml Polymyxin B to the 96 well microplate row A, serial dilution was performed by ½ in rows B-G. Polymyxin was not treated to the row H. After treating 8 μg/ml Colistin to the 96 well microplate row A, a combination treatment group in which LNT102 endolysin 1 μM was further treated and a PBS treatment group in the same amount were made. All wells were treated with Pseudomonas aeruginosa and Escherichia coli in an amount of 1×10^5 CFU/ml, total 100 μl, respectively. After that, they were cultured at 37° C. for 18 hours.
(§2) The MIC change of the polymyxin-based antibiotics by combination treatment of the polymyxin-base antibiotics (polymyxin B, Colistin) at various concentrations and LNT102 endolysin was measured and shown in Table 5 below.

[1] = tested on: P. aeruginosa (ATCC 27853); test: as above; format: cell-based; details: + PBS or + LNT102 endolysin 1 μM, 37° C. 18 hours
Method: as §1, §2

[2] = tested on: A. baumannii (ATCC 19606); test: as above; format: cell-based; details: + PBS or + LNT102 endolysin 1 μM, 37° C. 18 hours
gram negative bacteria = test: MIC change of polymyxin-based antibiotics with LNT102, all strains of Table 5; format: cell-based, P. aeruginosa, A. baumannii, E. coli; details: LNT102 endolysin 1 μM; maximum over the strains of Table 5
Method: as §1, §2

[3] = tested on: Pseudomonas aeruginosa PA01; test: Galleria mellonella Pseudomonas aeruginosa infected model, viability; format: in vivo; details: PA01 50 CFU/larva; LNT101 0.6 or 6 μg/larva, Colistin 0.5 μg/larva; observation for 72 hours
Method: The Pseudomonas aeruginosa killing ability of the endolysin LNT101 was also confirmed in vivo. As an animal model for the in vivo effectivity evaluation, Galleria mellonella was used. The Galleria mellonella model was divided into the healthy group (non-infection group), Pseudomonas aeruginosa infected group (drug non-administration group), 2 LNT101 administration groups in which LNT101 was administered into the infection model, Colistin administration group in which colistin was administered into the Pseudomonas aeruginosa infected model, and combination administration group in which LNT101 and colistin were administered in combination into the Pseudomonas aeruginosa infected model to progress an experiment, and 10 of Galleria mellonella per each group was used.
The Pseudomonas aeruginosa infected model was prepared by infecting Pseudomonas aeruginosa PA01 at the LD80 concentration, 50 CFU/larva, and LNT101 was administered at 0.6 μg/larva (3 mg/Kg) and 6 μg/larva (30 mg/Kg), respectively. Colistin was administered at 0.5 μg/larva (2.5 mg/Kg), and for administration in combination, Colistin at 0.5 μg/larva (2.5 mg/Kg) and LNT101 at 6 μg/larva (30 mg/Kg) were administered. […] In particular, in the LNT101 6 μg/larva (30 mg/Kg) administration group, the viability of 30% was confirmed.

gram negative bacterium = test: CFU reduction evaluation on various gram negative bacterium; format: cell-based
Method: For this, Endolysin LNT101 and LNT102 at a concentration of 2 μM and each 1×10^6 CFU of Pseudomonas aeruginosa (PA01; ATCC 15692), Acinetobacter baumannii (ATCC 17978), Escherichia coli (ATCC 8739), Klebsiella pneumoniae (ATCC 13883), Enterobacter aerogenes (CCARM 16006), and Salmonella enteritidis (ATCC 13076) was added in reaction buffer (20 mM Tris-Cl, pH 7.5) so that the final volume was 200 μl, and it was left at 37° C. for 2 hours. In 2 hours, the number of colonies of each gram negative bacterium was confirmed, and the result was shown in FIG. 8 (in FIG. 8, PA90 represents endolysin LNT101 and mtPA90 represents endolysin LNT102, respectively).
The endolysin LNT102 at a concentration of 0.1, 0.5, 2.5 μM, and each 1×10^6 CFU of Pseudomonas aeruginosa, Acinetobacter baumannii, and Escherichia coli was added in reaction buffer (20 mM Tris-Cl, pH 7.5) so that the final volume was 200 μl, and it was left at 37° C. for 2 hours.
In order to confirm the killing ability against gram negative bacterium of the fusion polypeptide LNT103 prepared in Example 3.2, CFU reduction evaluation was performed for various gram negative bacterium. In order to perform the CFU reduction evaluation, 2 μM of each of LNT101, LNT102, and LNT103 prepared in Example 3, and 1×10^6 CFU of each of Pseudomonas aeruginosa (PA01; ATCC 15692), Acinetobacter baumannii (ATCC 17978), Escherichia coli (ATCC 8739), Klebsiella pneumoniae (ATCC 13883), and Enterobacter aerogenes (CCARM 16006) were added to reaction buffer (20 mM Tris-Cl, pH7.5) so that the final volume was 200 μl, and it was left at 37° C. for 2 hours. After that, the number of the colonies of each gram negative bacterium was confirmed to compare and evaluate the antibiotic effect of each polypeptide. As a control group, the PBS treatment group (treating PBS in the same volume as the fusion polypeptide) was used.
In addition, the same test was performed by using the fusion polypeptide LNT103, and CecA-LNT101 at a concentration of 2 μM, and the result was shown in FIG. 15. For comparison, the same test was performed for groups treated with LNT102 or PBS.
On the other hand, in order to compare the antibacterial activity in case that a protein other than endolysin (LNT102 or LNT101) was fused to Cecropin A, the killing ability against gram negative bacterium of the fusion polypeptide LNT103 and cecropin A-EGFP fusion protein (a protein in which EGFP (GenBank Accession No. AAB02572.1) having no endolysin activity by replacing LNT102 in LNT103) was evaluated. For this, the proteins were treated in an amount of 0.2 μM or 2 μM, respectively, to perform the CFU reduction test. […] In particular, it could be confirmed that the CFU Counting result for all the tested gram negative bacterium killed all bacterium treated with 0, when LNT103 2 μM was treated.
Furthermore, the killing ability against gram negative bacterium according to the concentration and/or treatment time of the fusion polypeptide LNT103 was tested. Specifically, the fusion polypeptide LNT103 at a concentration of 0.1, 0.3, 0.9, or 2.7 μM and 1×10^6 CFU of Pseudomonas aeruginosa (PA01; ATCC 15692) or Acinetobacter baumannii (ATCC 19606) were added to reaction buffer (20 mM Tris-Cl, pH7.5) so that the final volume was 200 μl, and it was left at 37° C. for 2 hours, and then the number of the colonies was confirmed, and the result was shown in A of FIG. 17.
In addition, the fusion polypeptide LNT103 at a concentration of 2 μM and 1×10^6 CFU of Pseudomonas aeruginosa (PA01; ATCC 15692) were added to reaction buffer (20 mM pH7.5) so that the final volume was 200 μl, and in 0, 20 minutes, 40 minutes and 60 minutes at 37° C., the number of the colonies was confirmed, and the result was shown in B of FIG. 17. […]

Row | Molecule | reduction of MIC of the polymyxin-based antibiotic in combination with LNT101 (P. aeruginosa) [%] | MIC of antibiotics (P. aeruginosa) [µg/mL] | MIC of the polymyxin-based antibiotic (E. coli(ATCC 8739)) [µg/mL] | MIC of the polymyxin-based antibiotic [1] [µg/mL] | MIC of the polymyxin-based antibiotic [2] [µg/mL] | reduction of MIC of the polymyxin-based antibiotic in combination with LNT102 (gram negative bacteria) | viability of Galleria mellonella [3] | killing ability (number of colonies) (gram negative bacterium; 2 μM, 2 hours, 37° C., P. aeruginosa PA01, A. baumannii ATCC 17978, E. coli ATCC 8739, K. pneumoniae ATCC 13883, E. aerogenes CCARM 16006, S. enteritidis ATCC 13076) | killing ability (number of colonies) (gram negative bacterium; 0.1, 0.5, 2.5 μM, 30 minutes, 1 hour and 2 hours, Pseudomonas aeruginosa, Acinetobacter baumannii, Escherichia coli) | counting result (gram negative bacterium; 2 μM, all the tested bacterium (FIG. 15)) [log CFU/ml]
1 | polymyxin B | 50 | 4 | 0.5 | 0.5 | 0.5 | reduced by 1/16 times at maximum |  |  |  | 
2 | Colistin | 50 | 8 | 2 | 2 | 2 | reduced by 1/16 times at maximum | the viability was increased |  |  | 
3 | B1 |  |  |  |  |  |  |  | more excellent killing ability against gram negative bacterium in the same dose-, compared to LNT101 | had the killing ability against gram negative bacterium in all the tested treatment doses and time | 
4 | B2 |  |  |  |  |  |  |  |  |  | 0

— US11807881B2, “Polypeptide, fusion polypeptide, and antibiotic against gram-negative bacteria comprising same” (priority 2020, dated 2023)
